Laboratory results as given in ChEMBL document CHEMBL5247647, “Phenothiazine-Based LSD1 Inhibitor Promotes T-Cell Killing Response of Gastric Cancer Cells” (J Med Chem, 2023).

Biological target: Lysine-specific histone demethylase 1A (Homo sapiens, UniProt O60341)
Experiment: Inhibition of recombinant LSD1 (unknown origin) expressed in Escherichia coli BL21 (DE3) using H3K4me2 peptide as substrate incubated for 30 mins by fluorescence based microplate reader assay

Question: For `CN(C)CCCN1c2ccccc2Sc2ccccc21` [PROMAZINE], which IC50 is on record?
Answer: 4.71 µM
